# Entries after “also recorded” stand apart in the source; their conditions may differ. Peptide text beside a SMILES is read from it. * marks the point of attachment. Cbz = O=C(OCc1ccccc1)*; CH2F = FC*
# Tests used:
# [1] = tested on: primary human CD4+ T cells infected with HIV-189.6; assay: Viability (Annexin V / ViVid) of primary CD4+ T cells infected with HIV-189.6; type: cell-based; conditions: primary CD4+ lymphocytes, wild type HIV-189.6; NU7026 vs DMSO vehicle; 6 days after infection
# Protocol: Cell cycle analysis in 293T cells was performed on ethanol-fixed cells using the propidium iodide staining method after transduction with lentiviral vectors encoding wild type or mutant VPR. Cell debris was excluded from the analysis, and the DNA content of cells below the diploid level, sub-G1, was used to calculate the apoptosis rate. The association of VPR with VprBP and DNA-PK was determined by immunoprecipitation. Briefly, whole cell extracts were prepared in lysis buffer and incubated with the relevant antibodies, concentrated on Protein G beads, and analyzed by Western blotting. HIV-1 viral stocks were generated by transfecting 293T cells with the HIV-189.6 wild type and IVPR plasmids followed by propagation in CEMx174 cells as previously described^16. CD4^+ T cells were isolated from elutriated lymphocytes using magnetic bead purification, activated and infected as described in Methods. […]
# CD4^+ T lymphocytes were isolated from elutriated lymphocytes prepared from blood of healthy donors by negative selection with a CD4^+ T-cell isolation kit II (Miltenyi Biotech) according to the manufacturer's instructions. The purity of the isolated CD4^+ T cells was assessed by fluorescence-activated cell sorting (FACS) analysis for CD4 (BD-Pharmingen) and 95% of the cells were CD4^+ upon isolation. […]
# DNA-PK = molecular target: T1, DNA-PK (Homo sapiens, UniProt P78527); assay: Western blot of γH2AX (H2AX phosphorylation) in cells transfected with VPR-encoding plasmid; type: cell-based; conditions: indicated concentrations of inhibitor (FIG. 2d)
# T1 construct: endogenous in cells; host or cells: HEK293T (inferred; only VPR is transfected, DNA-PK is the cells' own)
# Protocol: FIG. 2d, VPR induction of DNA-PKcs autophosphorylation (left, lanes 1,2) and Western blot analysis of γH2AX from cells transfected with a VPR-encoding plasmid and treated with the indicated concentrations of DNA-PK inhibitor NU7026 (right, lanes 3-7). Western blot analysis of autophosphorylated DNA-PKcs was performed using anti-phosphoserine 2056 DNA-PKcs from cells transfected with an empty vector or a VPR-encoding plasmid. Cell lysates were subjected to Western blotting using the indicated antibodies.
# Cell extracts for Western blots and immunoprecipitations were made in cell lysis buffer (Cell Signal). Immunoprecipitations were performed overnight at 4° C. using normal rabbit serum, anti-VprBP or anti-DNA-PK polyclonal antibodies (Bethyl Laboratories). Protein G beads (Invitrogen) were then added for 2 h, washed three times with 1× lysis buffer, boiled and loaded onto 4-15% polyacrylamide Tris Glycine gels (BioRad). The primary antibodies used for Western blotting were anti-DNA-PK, anti-VprBP (Bethyl Laboratories), anti-actin (Sigma), anti-γH2AX (Cell Signaling), anti-HA (Santa Cruz Biotechnology), anti-Ku70, and anti-Ku80 (BD Transduction Laboratories).
# 293T cells = assay: VPR-induced apoptosis and cell cycle analysis by propidium iodide DNA content in 293T cells; type: cell-based, human
# Protocol: Cell cycle analysis in 293T cells was performed on ethanol-fixed cells using the propidium iodide staining method after transduction with lentiviral vectors encoding wild type or mutant VPR. Cell debris was excluded from the analysis, and the DNA content of cells below the diploid level, sub-G1, was used to calculate the apoptosis rate. The association of VPR with VprBP and DNA-PK was determined by immunoprecipitation. Briefly, whole cell extracts were prepared in lysis buffer and incubated with the relevant antibodies, concentrated on Protein G beads, and analyzed by Western blotting. HIV-1 viral stocks were generated by transfecting 293T cells with the HIV-189.6 wild type and IVPR plasmids followed by propagation in CEMx174 cells as previously described^16. CD4^+ T cells were isolated from elutriated lymphocytes using magnetic bead purification, activated and infected as described in Methods. For siRNA transfections in CD4^+ lymphocytes, isolated CD4 cells were transduced by nucleofection. In some experiments, cells were treated with either DMSO or the DNA-PK inhibitor NU7026 (Sigma) during the infection period. Viability of infected primary CD4^+ T cells was performed using combined staining with Annexin V-APC (BD Pharmigen) and the amine reactive viability dye ViVid (Invitrogen). Flow cytometry was performed with a LSR II cell analyzer.
# CEMX174 cells were cultured in RPMI with 10% FBS and antibiotics (penicillin and streptomycin). HEK293T cells were cultured in DMEM supplemented with 10% FBS and antibiotics (penicillin and streptomycin). For immunoprecipitation experiments HEK293T cells were transfected with 3 μg of either […] or 102-HAVpr Q65R using the LipofectAMINE 2000 reagent (Life Technologies, Inc.). For cell cycle analysis HEK293T cells were harvested, washed with ice-cold PBS and resuspended in 70% cold ethanol while vortexing. The cells were incubated at −20° C. overnight, washed once with PBS and resuspended in PBS containing 25 μg/ml propidium iodide and 100 μg/ml RNaseA for 15 minutes at 25° C. Stained cells were then analyzed by flow cytometry.
# Lentivirus vectors were produced by transiently transfecting HEK293T cells using the calcium phosphate method. […]. Virus supernatants were collected at 48 h post transfection. The harvested supernatants were cleared by centrifugation, concentrated and frozen at −80° C. for storage.
# HIV-189.6 = assay: Frequency of infection by p24 positivity, flow cytometry; type: cell-based, HIV-1; conditions: primary CD4+ lymphocytes, wild type HIV-189.6; NU7026 vs DMSO
# Protocol: Purified, activated CD4^+ T cells were infected 2-3 days after isolation. For nucleofected cells, infection was done 36 h after nucleofection. HIV-1 infection of CD4^+ T lymphocytes was performed in 96-well round-bottomed culture plates by combining 10 μl virus stock with 150 μl CD4^+ T lymphocytes (1.5×10^5 cells). The multiplicity of infection was ˜1.0. CD4^+ T lymphocytes were harvested at the indicated times following exposure to virus.
# CD4^+ T lymphocytes were harvested for Annexin V, Vivid and intracellular p24-Gag staining at the indicated times following exposure to virus. In brief, the cells were washed and stained with Annexin V-APC (BD Pharmigen) and Vivid (Invitrogen) for 20 min. Cells were washed once, fixed, and permeabilized with Cytoperm/Cytofix (BD Pharmingen) for 20 min. Cells were then stained for p24 Gag (KC-57 fluorescein isothiocyanate (FITC); Coulter) for 30 min and washed once in 1× Perm/wash buffer (BD Pharmingen). Flow cytometry was performed with an LSR II cell analyzer (Becton Dickinson), and data analysis was performed with FlowJo software (Tree Star, Inc.)
# [2] = 293T cells transduced with VPR lentiviral vector, NU7026 10 μM vs DMSO, 72 h after transduction
# [3] = 293T cells transduced with lentiviral vector encoding wild type VPR, 100 μM Z-VAD-fmk vs DMSO
SMILES,direct cell killing by the virus (cell death following HIV infection) [1],VPR induced H2AX phosphorylation (DNA-PK),G2/M cell cycle arrest (293T cells; [2]),VPR-induced apoptosis (293T cells; [2]),"frequency of infection, p24 positivity (HIV-189.6)",G2/M blockade (293T cells; [3]),VPR-induced apoptosis (293T cells; [3])
O=c1cc(N2CCOCC2)oc2c1ccc1ccccc12 [NU7026],profoundly diminished; also recorded: substantial reduction,diminished by this DNA-PK inhibitor in a dose-dependent manner,without diminishing,alleviated,remained unchanged,–,–
COC(=O)C[C@H](NC(=O)[C@H](C)NC(=O)[C@@H](NC(=O)OCc1ccccc1)C(C)C)C(=O)CF [zVAD-fmk] (Cbz-Val-Ala-Asp(OMe)-CH2F),–,–,–,–,–,did not reverse,significantly reduced

# — US20130109687A1, “METHODS OF TREATING HIV INFECTION: INHIBITION OF DNA DEPENDENT PROTEIN KINASE” (priority 2010, published 2013)
